In assay [1] the test system is ischemic heart isolated from white rat. Nature of the assay: Cardioprotective effect on isolated ischemic rat heart (Langendorff, 30 min global ischemia / 30 min reperfusion). To be noted: 10 μM; for LDH (concentration of lactate dehydogenase): after 30 min reperfusion; for EDP (left ventricular end diastolic pressure): after reperfusion, baseline set at 5 mmHg; for TTC (time to induce contraction / time to contracture): during 30 min global ischemia, first 5 mmHg increase in EDP; for LVDP × HR (left ventricular developed pressure × heart rate): reperfusion DP as % of pre-treatment DP, 30 min after reperfusion. Here is the method:
100 mg/kg of sodium pentobarbital was injected in abdominal cavity of white male rats (300˜450 g, obtained form the experimental animal team of the Korea Research Institute of Chemical Technology) to anesthetize them. Then, an intravenous injection of 1000 U/kg of heparin was performed before taking out heart. Particularly, cannula(PE 240) was inserted in the trachea, and artificial respiration was tried upon the rat by using a rodent ventilator. Under that condition, aortic cannula was inserted in the aorta and heart was taken out under retrograde perfusion. The extracted heart was hung on Langendorff apparatus quickly and unnecessary tissues on heart were removed. Perfusion was induced under static pressure (85 mmHg) with 37° C. modified Krebs-Henseleit bicarbonate buffer (composition <mM/L>: 116 NaCl, 4.7 KCl, 1.1 MgSO4, 1.17 KH2PO4, 24.9 NaHCO3, 2.52 CaCl2, 8.32 Glucose, 2.0 Pyruvate) saturated with 95% O2/5% CO2. A metal cannula, to which a latex balloon filled with an ethanol-distilled water mixture (1:1 vol/vol) was linked, was inserted in left ventricle through pulmonary vein. Then, left ventricular pressure transmitted through the balloon was transduced by using pressure transducer, and amplified by using Plugsys bridge amplifier isovolumetrically. Then, the pressure was recorded in a recorder (Linearcorder mark 8 WR 3500). Thereafter, heart was stabilized for 15 minutes. Then, left ventricular end diastolic pressure (LVEDP) was given by 5 mmHg and such volume of the balloon was kept all through the experiments.
Baseline cardiac contractile function, heart rate (HR), and coronary flow (CF) were measured. Cardiac contractile function was calculated by […], yielding LVDP (left ventricular developed pressure). Double product RPP (rate-pressure product)(DP), another important parameter for indirectly assessing cardiac performance in Langendorff heart, whose cardiac output could not be measured ordinarily, was calculated by multiplying HR by LVDP. Throughout the experiment, total coronary blood flow was measured by the use of coronary flow probe (diameter: 1.0 mm) installed in aortic cannula with electromagnetic flowmeter. Temperature of heart was steadily maintained by immersing the heart at 37° C. in physiological saline solution to which 95% O2/5% CO2 was constantly supplied. After stabilization for 15 min, the hearts were pre-treated for 10 min with vehicle (0.04% DMSO) only or a compound of the present invention or the control material in the vehicle. Thereafter, cardiac contractile function, HR and CF were repeatedly measured. Global ischemia was induced by completely shutting off the perfusate for 30 min. Severity of ischemia was determined as the time to contracture (TTC, min) during global ischemia in which the first 5 mmHg increase in EDP was observed. Then, the hearts were reperfused and, 30 min later, contractile functions (LVDP, HR and CF) were repeatedly measured. After reperfusion was accomplished for 30 min, LDH (lactate dehydrogenase) was measured with a kit as a sensitive index for loss of cell viability.

The test system of assay [2] is ischemic myocardial injury models prepared from white rats. As to the kind of experiment: Antiischemic activity in the anesthetized rat ischemic myocardial injury model (coronary occlusion 45 min / reperfusion 90 min). Format: in vivo. To be noted: 0.3 mg/kg, intravenous (femoral vein), 30 min before occlusion. Here is the method:
75 mg/kg of sodium pentobarbital was injected in abdominal cavity of white male rats (350-450 g, Laboratory Animal Division, Korea Research Institute of Chemical Technology) to anesthetize them. After performing tracheotomy, artificial respiration was induced by 10 ml/kg of stroke volume and 60/min. of heart rate. Cannula was inserted in each of vena fermoralis and aorta fermoralis, through which medicines were administered and blood pressure was measured. In the meantime, since body temperature in a ischemic myocardial injury model was very important factor, directly influencing a result, the temperature of a rat was always kept at 37° C. by using a probe for measuring body temperature inserted in rectum and homeothermic blanket control unit. Mean arterial blood pressure and heart rate (HR) of the rat were measured all through the experiments. Statham P23XL pressure transducer (Grass Ins., MA., USA) was used for measuring blood pressure and ECG/RATE Coupler (Hugo Sachs Electronic, Germany) was used for measuring HR. In addition, all the changes were recorded successively by graphtec linearcorder chart recorder (Graphtec Linearcorder WR 3310, Hugo Sachs Electronic).
According to the method of Selye H, left coronary aorta was occluded as follows. Left thoracotomy was induced. That is, the chest of a rat was a little opened. The right chest of the anesthetized rat was pressurized by the middle finger of left hand, so that the heart was pushed out. The heart was fixed gently by the thumb and the index finger of the left hand. A stitch was carefully put on a part including left anterior descending coronary artery by a suture needle with operating thread (5-0 silk ligature), and the heart was quickly positioned again in thoracic cavity. Then, both ends of operating thread were exposed outside. Both ends of operating thread were passed through PE tube (PE100, 2.5 cm) and left for 20 minutes for stabilization. A vehicle or a medicine was administered through the cannula inserted in femoral vein, which was left for 30 minutes in order for the medicine to work thoroughly. BMS-180448 was used for a control group and the dosage of each test medicine and a control medicine was 0.3 mg/kg each. […]
The coronary artery was reoccluded according to the above method and 2 ml of 1% Evans blue solution was administered by intravenous injection. […] The surface of each slice was inputted in a computer by using Hi-scope, a compact micro vision system, and Image pro plus program, from which both normal blood flow tissue area stained by blue and non-stained area on each slice were measured. The ratio of non-stained area to the gross area of each slice was calculated, by which the weight of each slice was multiplied to calculate AAR (area at risk) of each slice. […]

For the compound `CC1(C)Oc2ccc(C#N)cc2[C@@H](NC(=NC#N)Nc2ccc(Cl)cc2)[C@@H]1O` [BMS-180448, reference compound], in assay [1], the “LDH (concentration of lactate dehydogenase)” value turned out to be 17.2 unit/g, the “EDP (left ventricular end diastolic pressure)” value turned out to be 16.5 mmHg, the “TTC (time to induce contraction / time to contracture)” value was determined as 27.8 min and the “LVDP × HR (left ventricular developed pressure × heart rate)” value was found to be 67.6%. Besides, in assay [2], the “IZ/AAR(%) myocardial infarction size to area at risk” value is listed as 39.1%.
Taken in the same sequence, the figures for `COc1ccc2oc(=S)n([C@H]3c4cc([N+](=O)[O-])ccc4O[C@@](C)(C(OC)OC)[C@@H]3O)c2c1` [Example 10, (2R,3R,4S)-6-nitro-3,4-dihydro-3-hydroxy-2-dimethoxymethyl-2-methyl-4-(5-methoxy-2-thioxobenzoxazol-3-yl)-2H-1-benzopyran] were 17.3 unit/g, 36.7 mmHg, 24.4 min, 54.2% and 46.6%.

The values above are taken from patent US7420060B2, “Benzopyran derivatives substituted with a thioxobenzoxazole derivative, pharmaceutically acceptable salts thereof, their preparations and pharmaceutical compositions containing them” (Schaeffler KG, priority 2003, dated 2008).
